# In PubChem BioAssay (NCI):
# “And” between values parts separate entries of the source, which are not always exact repeats. Equal entries are not always repeated.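 Five concentrations, 48 hours, 96-well plates. GI50 is the concentration that inhibits growth by half. TGI is the concentration that stops growth completely.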
# Key:
# Assay in all cases: NCI anticancer screen, dose series, 48 h
# [1] = system: MOLT-4 leukemia
# [2] = system: SR leukemia
# [3] = system: HCC-2998 colon
# [4] = system: K-562 leukemia
# [5] = system: EKVX NSCLC
# [6] = system: SF-295 CNS
# [7] = system: KM12 colon
# [8] = system: NCI-H522 lung
# [9] = system: NCI-H460 lung
# [10] = system: MDA-MB-435
Structure (SMILES),GI50 [1] [µM],TGI [1] [µM],GI50 [2] [µM],TGI [2],GI50 [3] [µM],TGI [3],GI50 [4] [µM],TGI [4] [µM],GI50 [5] [µM],TGI [5] [µM],GI50 [6] [µM],TGI [6],GI50 [7] [µM],TGI [7],TGI [8] [µM],TGI [9],GI50 [8] [µM],GI50 [9] [µM],GI50 [10] [µM],TGI [10] [µM]
CC(C)=O.O=C([O-])C(F)(F)F.O=C([O-])C(F)(F)F.O=C([O-])C(F)(F)F.O=C([O-])C(F)(F)F.[Rh+2].[Rh+2],15.4,> 100,22.2,> 100 µM,> 100,> 100 µM,31.8,> 100,47.2,> 100,> 100,> 100 µM,> 100,> 100 µM,–,–,–,–,–,–
CCO/C(CCn1[nH]c(=O)c(Cl)c(Cl)c1=O)=N\NC(=O)C(=O)NN,–,> 100,–,–,–,> 100 µM,–,> 100,–,> 100,–,> 100 µM,–,> 100 µM,> 100,> 100 µM,–,–,–,–
COc1cccc(OC(=O)c2ccc(C(F)(F)F)nc2Nc2c(C)cccc2Cl)c1,31.5,> 100,–,–,4.63,32.3 µM,36.5,> 100,36.1,> 100,17.1,48.5 µM,–,–,38.3,> 100 µM,16,26.4,35,> 100
CCN(CC)CCC(=O)OC1C(C)=CC(C)C(=O)CC(C(C)CC2CCC(O)C(OC)C2)OC(=O)C2CCCCN2C(=O)C(=O)[C@@]2(O)OC(CCC2C)CC(OC)\C(C)=C/C=C/C=C/C(C)CC(C)C(=O)C1OC (some centres undefined),–,–,–,–,–,21.8 µM,–,21.4,–,17.1,–,18.5 µM,–,21.2 µM,26.5,23.8 µM,–,–,–,21.2
COc1cc2c3c(n(CCCCNC(=O)OC(C)(C)C)c(=O)c2cc1OC)-c1cc2c(cc1C3=O)OCO2,–,–,–,–,> 100,> 100 µM,> 100,> 100,> 100,> 100,16.1,> 100 µM,> 100,> 100 µM,> 100,> 100 µM,> 100,5.66,> 100,> 100
O=S(=O)(c1ccccc1)c1nccs1,–,> 100,–,> 100 µM,–,> 100 µM,–,> 100,–,> 100,–,> 100 µM,–,> 100 µM,> 100,> 100 µM,–,–,–,–
CC(=O)O[C@@]12CO[C@@H]1C[C@H](O)[C@@]1(C)C(=O)[C@H](O)C3=C(C)[C@@H](OC(=O)[C@H](O)[C@@H](NC(=O)OC(C)(C)C)c4ccccc4)C[C@@](O)([C@@H](OC(=O)c4ccccc4)C12)C3(C)C (some centres undefined),0.0194,52.6,< 0.005,46.3 µM and 14.7 µM,< 0.005,0.00872 µM and 0.0429 µM,< 0.005,50,–,–,0.016,50 µM and 16.8 µM,< 0.005,50 µM and 27.7 µM,52.3,20.1 µM and > 100 µM,–,< 0.005,–,–
CN(C)C[C@H]1CCn2c(c(C3=C(c4cn(C)c5ccccc45)C(=O)NC3=O)c3ccccc32)C1,6.38,14,4.26,11.1 µM,4.86,9.16 µM,5.29,10.8,–,–,5.21,11.3 µM,4.57,8.66 µM,9.17,9.55 µM,4.86,4.86,3.95,7.9
S=c1nc(C(c2ccccc2)c2ccccc2)[nH][nH]1,–,> 100,–,–,–,> 100 µM,–,> 100,–,> 100,–,> 100 µM,–,> 100 µM,> 100,> 100 µM,–,–,–,–
O=C(N/C(=C\c1c(O)ccc2ccccc12)c1nc2ccccc2[nH]1)c1ccccc1,–,> 100,–,–,–,> 100 µM,–,> 100,–,> 100,–,–,–,> 100 µM,> 100,> 100 µM,–,–,–,–
O=C1NCN(c2ccccc2)C12CCN(CCCC(c1ccc(F)cc1)c1ccc(F)cc1)CC2,2.31,5.99,0.704,3.74 µM,2.24,4.16 µM,1.71,4.11,–,–,1.5,3.1 µM,2.14,4.38 µM,2.93,3.08 µM,1.51,1.68,1.75,3.77
O=C(Nc1cc(Cl)ccc1Cl)c1cc2cccc(Br)c2oc1=O,–,> 100,–,–,–,–,–,> 100,–,> 100,–,> 100 µM,–,> 100 µM,> 100,> 100 µM,–,–,–,–
O=c1/c(=C/c2c(O)ccc3ccccc23)sc2nc3ccccc3n12,–,–,–,–,–,> 100 µM,–,> 100,–,> 100,–,> 100 µM,–,> 100 µM,> 100,> 100 µM,–,–,–,–
CC1(C)OC2CC3COC(=O)C3CC2O1 (centres undefined),–,> 100,–,> 100 µM,–,> 100 µM,–,> 100,–,> 100,–,> 100 µM,–,> 100 µM,> 100,> 100 µM,–,–,–,–
CC(N)Cc1ccc(Cl)cc1 (centres undefined),–,> 100,–,> 100 µM,–,> 100 µM,–,> 100,–,> 100,–,> 100 µM,–,> 100 µM,> 100,> 100 µM,–,–,–,–
CSC(=Nc1ccccc1Cl)NC(=O)c1ccc(Br)cc1,–,54.9,–,> 100 µM,–,> 100 µM,–,45,–,> 100,–,> 100 µM,–,> 100 µM,> 100,> 100 µM,–,–,–,–
COc1cccc2c1C(=O)c1c(O)c3c(c(O)c1C2=O)C[C@@](O)(C(C)=O)C[C@@H]3OC1CC([N+]([O-])(Cc2ccccc2)Cc2ccccc2)C(O)C(C)O1 (some centres undefined),–,–,–,–,–,3.07 µM,–,–,–,3.47,–,2.88 µM,–,2.9 µM,2.68,2.39 µM,–,–,–,–
